Values after ≈ are worked out from the molar mass of the structure shown. Where a SMILES comes first, the peptide text is derived from it. [ ]: non-standard residue; d: D form. N(tridecyl)Gly = CCCCCCCCCCCCCNCC(=O)O; Gly(N-2-aminoethyl) = NCCNCC(=O)O; Gly(N-cHex) = O=C(O)CNC1CCCCC1; Nleu = CC(C)CNCC(=O)O; Nlys = NCCCCNCC(=O)O
Assays:
C. neoformans = assay type: cell-based, Cryptococcus neoformans; conditions: 72 h
[1] = tested on: Escherichia coli ATCC 25922; assay type: cell-based; conditions: ATCC 25922, 24 h
Procedure: (§1) The minimum inhibitory concentration (MIC) of peptoids against the ESKAPE bacteria (Enterococcus faecium ATCC 6569; Staphylococcus aureus ATCC 29213; Klebsiella pneumoniae ATCC 13883; Acinetobacter 55aumannii ATCC 19606; Pseudomonas aeruginosa ATCC 25619; Enterococcus faecalis ATCC 29212; and Escherichia coli ATCC 25922) was determined following CLSI guidelines (CLSI. Methods for Dilution Antimicrobial Susceptibility Tests for Bacteria That Grow Aerobically, 11th Edition. (Clinical and Laboratory Standards Institute, 2018). The MIC against Mycobacterium smegmatis was also determined following CLSI guidelines (Woods et al., Susceptibility Testing of Mycobacteria, Nocardiae, and Other Aerobic Actinomycetes, 2nd edition. (2011)). Colonies picked from streaked tryptic soy agar plates were added to tryptic soy broth (TSB) to achieve a turbidity of OD600=0.08-0.15. Inoculant was diluted 1:200 into cation adjust Mueller Hinton Broth (CAVHB) and 90 μL was plated into each well of a 96 well black-wall plate. 2-fold serial dilutions of 10× peptoid (10 μL) were added to each well in triplicate and incubated at 37° C. for 24 hours for the ESKAPE bacteria and 72 hours for M. smegmatis. Tetracycline (20 μg/mL) was used as a positive control with DI water was used as a vehicle control. Following incubation for the ESKAPE bacteria, PrestoBlue (10 μL) was added to each well and incubated at 37° C. for one hour before measuring fluorescence on a SpectraMax M5 plate reader (Ex. 555 nm; Em. 585 nm). Following incubation for M. smegmatis, wells were scored following CLSI guidelines to determine MIC. This assay was repeated three times on separate days.

[2] = tested on: Klebsiella pneumoniae ATCC 13883; assay type: cell-based; conditions: ATCC 13883, 24 h
Procedure: as §1

[3] = tested on: Enterococcus faecium ATCC 6569; assay type: cell-based; conditions: ATCC 6569, 24 h
Procedure: as §1

[4] = tested on: Pseudomonas aeruginosa ATCC 25619; assay type: cell-based; conditions: ATCC 25619, 24 h
Procedure: as §1

Mycobacterium smegmatis = assay type: cell-based; conditions: 72 h
Procedure: as §1

[5] = tested on: Enterococcus faecalis ATCC 29212; assay type: cell-based; conditions: ATCC 29212, 24 h
Procedure: as §1

[6] = tested on: Staphylococcus aureus ATCC 29213; assay type: cell-based; conditions: ATCC 29213, 24 h
Procedure: as §1

A. baumannii = assay type: cell-based, Acinetobacter baumannii; conditions: 24 h
Procedure: as §1, with “2-fold serial dilutions of 10× peptoid (10 μL) were added to each well in triplicate and incubated at 37° C. for 24 hours for the ESKAPE bacteria and 72 hours for M. smegmatis. Tetracycline (20 μg/mL) was used as a positive control with DI water was used as a vehicle control.” left out, “This assay was repeated three times on separate days.” left out

Structure (SMILES)	C. neoformans MIC (C. neoformans) [µg/mL]	MIC E. coli [1] [µg/mL]	MIC K. pneumoniae [2] [µg/mL]	MIC E. faecium [3] [µg/mL]	MIC P. aeruginosa [4] [µg/mL]	MIC M. smegmatis (Mycobacterium smegmatis) [µg/mL]	MIC E. faecalis [5] [µg/mL]	MIC S. aureus [6] [µg/mL]	MIC A. baumannii (A. baumannii) [µg/mL]	MIC C. neoformans (C. neoformans) [µg/mL]
CCCCCCCCCCCCCNCC(=O)N(CC(=O)N(CCCCN)CC(=O)N(CCN)CC(=O)N(CC(N)=O)CC(C)C)CC(C)C [Compound 9] (H-[N(tridecyl)Gly][Nleu][Nlys][Gly(N-2-aminoethyl)][Nleu]-NH2)	3.13	–	–	–	–	–	–	–	–	–
CCCCCCCCCCCCCNCC(=O)N(CC(=O)N(CCCCN)CC(=O)N(CCN)CC(=O)N(CC(N)=O)C1CCCCC1)C1CCCCC1 [RMG8-8, Ntri-Ncha-Nlys-Nae-Ncha] (H-[N(tridecyl)Gly][Gly(N-cHex)][Nlys][Gly(N-2-aminoethyl)][Gly(N-cHex)]-NH2)	–	12.5 (≈ 16.4 µM)	100 (≈ 131 µM)	6.25 (≈ 8.19 µM)	100 (≈ 131 µM)	3.13 to 6.25	6.25 (≈ 8.19 µM)	6.25 (≈ 8.19 µM)	25 (≈ 32.8 µM)	1.6 (≈ 2.1 µM)
